# In US20040220164A1, “Triaza compound immunoregulatory agents” (priority 2001, published 2004):
# Where two headings read alike, the source gives them in different places.
# Key:
# CD4 [1] = target: T1, CD4 (Homo sapiens, UniProt P01730); assay: CD4 down-modulation, flow cytometry with FITC-conjugated anti-CD4 (SK3) mAb, MT-4 cells; type: cell-based; design: To study the effect of the CADA derivatives on surface CD4 antigen expression, MT-4 and SupT1 cells were incubated; endogenous in cells; host or cells: MT-4, SupT1, PBMC; conditions: for down-regulation of CD4 receptor expression / IC50: MT-4 cells; for down-regulation of CD4 receptor expression: 4 days (FIG. 5); for IC50: day 3, read-out: IC50 CD4 (50% inhibition of extracellular CD4 expression) (converted)
# HHV-7 (KHR strain) = assay: Anti-HHV-7 assay in SupT1 cells (antigen expression, flow cytometry, Example 3); type: cell-based; conditions: SUP-T1; SupT1 cells; read-out: IC50 HHV-7 (50% reduction of HHV-7 antigen expression)
# Outline: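 SupT1 cells pre-incubated 30 min at room temperature with five-fold compound dilutions, then infected with HHV-7. Every 2–3 days from day 4, half the medium and cells were replaced with compound-free medium. Once microscopic CPE appeared, HHV-7 antigen expression was measured by flow cytometry.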
# [2] = Cytotoxicity assay (trypan blue exclusion, propidium iodide); type: cell-based, human; conditions: human, read-out: CC50 (50% cytotoxic concentration)
# Protocol: Cytotoxicity Assay. Cellular toxicity of the compounds was measured by trypan blue exclusion and also by Propidium Iodide by flow cytometry after 3 or 4 days of incubation, in parallel with the CD4 antigen expression. The CC50 value of each CADA analog is the concentration (in μg/ml) required to reduce the viability of the cells by 50%.
# HIV-1 strain NL4.3 = assay: Anti-HIV-1 assay in MT-4 cells (p24 Ag ELISA, Example 3); type: cell-based
# Outline: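 MT-4 cells infected with HIV-1 NL4.3 in presence of five-fold compound dilutions, incubated 3–5 days until strong viral CPE in untreated infected cells. Supernatant p24 core antigen measured by ELISA; IC50 is concentration giving 50% reduction in p24.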
# CD4 [3] = target: T1, CD4; assay: CD4 down-modulation, flow cytometry with FITC-conjugated anti-CD4 (SK3) mAb, SupT1 cells; type: cell-based; design: To study the effect of the CADA derivatives on surface CD4 antigen expression, MT-4 and SupT1 cells were incubated; endogenous in cells; host or cells: MT-4, SupT1, PBMC; conditions: for IC50: day 4, read-out: IC50 CD4 (50% inhibition of extracellular CD4 expression) (converted)
# Outline: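 MT-4 and SupT1 cells were exposed at 37 °C to 5-fold compound dilutions (50–0.08 μg/ml). On day 3 (MT-4) or day 4 (SupT1) they were stained with FITC anti-CD4 (SK3) for 30 min at 4 °C and analysed by flow cytometry. IC50 was derived from MFI as % of untreated control, after isotype subtraction.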
# [4] = Human immunodeficiency virus 1, MT4, 96 h, MT-4 cells, 0.4 μg/ml, 4 days (FIG. 5), read-out: inhibition of NL4.3 virus production (p24)
# [5] = Human immunodeficiency virus 1, MT4, MT-4 cells, read-out: IC50 HIV-1 (NL4.3), p24 Ag ELISA
down-regulation of CD4 receptor expression (CD4 [1]; 0.4 μg/ml),IC50 (CD4 [1]),IC50 (HHV-7 (KHR strain)),IC50 (HIV-1 strain NL4.3; [5]),IC50 (CD4 [3]),Compound,down-regulation of CD4 receptor expression (CD4 [1]; 2 μg/ml),CC50 ([2]; MT-4 cells),CC50 ([2]; SupT1 cells),inhibition at 0.4 µg/mL (HIV-1 strain NL4.3; [4]),other results
73%,357 nM,0.05 µg/mL,0.2 µg/mL,425 nM,C=C1CN(S(=O)(=O)c2ccc(C)cc2)CCCN(CC2CCCCC2)CCCN(S(=O)(=O)c2ccc(C)cc2)C1 [QJ028],,20.7 µg/mL,28.1 µg/mL,88%,"CD4 down-regulating potency, fold more active than CADA (CD4 [1]; compared to CADA): 2 fold; selectivity index (CC50/IC50) (CD4 [3]): approximately 100"
nor significant CD4 down-regulation,2060 nM,0.73 µg/mL,1.22 µg/mL,3270 nM,C=C1CN(S(=O)(=O)c2ccc(C)cc2)CCCN(C(=O)OCCC)CCCN(S(=O)(=O)c2ccc(C)cc2)C1 [QJ033],69%,25.5 µg/mL,32.5 µg/mL,,"CD4 receptor down-modulating activity, fold higher than compound 95-213 (CD4 [1]; compared to 95-213): 5 fold; inhibition at 2 µg/mL (HIV-1 strain NL4.3; Human immunodeficiency virus 1, MT4, 96 h, MT-4 cells, 2 μg/ml, 4 days (FIG. 5), read-out: inhibition of NL4.3 virus production (p24)): 56%; inhibition of NL4.3 virus production (p24) (HIV-1 strain NL4.3; MT-4 cells, 0.4 μg/ml, 4 days (FIG. 5)): no antiviral activity"

Compound,down-regulation of CD4 receptor expression (CD4 [1]; 0.4 μg/ml),IC50 (CD4 [1]),IC50 (HHV-7 (KHR strain)),IC50 (HIV-1 strain NL4.3; [5]),IC50 (CD4 [3]),down-regulation of CD4 receptor expression (CD4 [1]; 2 μg/ml),CC50 ([2]; MT-4 cells),CC50 ([2]; SupT1 cells),inhibition at 0.4 µg/mL (HIV-1 strain NL4.3; [4]),other results
C=C1CN(S(=O)(=O)c2ccc(C)cc2)CCCN(Cc2ccccc2)CCCN(S(=O)(=O)c2ccc(C)cc2)C1 [CADA],58%,602 nM,0.35 µg/mL,0.72 µg/mL,980 nM,significantly down-modulated,23.6 µg/mL,> 50 µg/mL,25%,"down-regulation of CD4 receptor expression (CD4 [1]; 0.08 μg/ml): no inhibitory effect; down-regulation of CD4 receptor expression (CD4 [1]; 10 μg/ml): significantly down-modulated; IC50 (HIV-1 strain NL4.3; Human immunodeficiency virus 1, MT4 cells, Table 6, unit inferred, read-out: IC50(HIV-1)): 0.52 µg/mL; inhibition of NL4.3 virus production (p24) (HIV-1 strain NL4.3; MT-4 cells, 0.08 μg/ml, 4 days (FIG. 5)): no anti-HIV-1 activity; inhibition of NL4.3 virus production (p24) (HIV-1 strain NL4.3; MT-4 cells, 2 μg/ml, 4 days (FIG. 5)): significant inhibition; inhibition of NL4.3 virus production (p24) (HIV-1 strain NL4.3; MT-4 cells, 10 μg/ml, 4 days (FIG. 5)): significant inhibition; p24 level (HIV-1 strain NL4.3; MT-4 cells, NL4.3, 0.08 μg/ml, 4 days, infected control cells 325 ng/ml): 392 ng/mL"
